In patent US20260055120A1, “Bicyclic pyrimidinones as inhibitors of NOX4” (Boehringer Ingelheim International GmbH, priority 2024, published 2026):

Key:
[1] = target: NOX4 (Homo sapiens (Human), UniProt Q9NPH5); details: modified human embryonic kidney (HEK) cells, Amplex Red as detecting reagent; read-out: NOX4 IC50 as disclosed in WO2016207785; cited from earlier work
[2] = target: human NOX4 (hNOX4) (Homo sapiens (Human), UniProt Q9NPH5); assay: NOX4 inhibition assay (HyPerBlu); type: cell-based; details: HEK293 cells overexpressing hNOX4, HyPerBlu
human NOX4 (hNOX4), sequence (Q9NPH5 whole entry): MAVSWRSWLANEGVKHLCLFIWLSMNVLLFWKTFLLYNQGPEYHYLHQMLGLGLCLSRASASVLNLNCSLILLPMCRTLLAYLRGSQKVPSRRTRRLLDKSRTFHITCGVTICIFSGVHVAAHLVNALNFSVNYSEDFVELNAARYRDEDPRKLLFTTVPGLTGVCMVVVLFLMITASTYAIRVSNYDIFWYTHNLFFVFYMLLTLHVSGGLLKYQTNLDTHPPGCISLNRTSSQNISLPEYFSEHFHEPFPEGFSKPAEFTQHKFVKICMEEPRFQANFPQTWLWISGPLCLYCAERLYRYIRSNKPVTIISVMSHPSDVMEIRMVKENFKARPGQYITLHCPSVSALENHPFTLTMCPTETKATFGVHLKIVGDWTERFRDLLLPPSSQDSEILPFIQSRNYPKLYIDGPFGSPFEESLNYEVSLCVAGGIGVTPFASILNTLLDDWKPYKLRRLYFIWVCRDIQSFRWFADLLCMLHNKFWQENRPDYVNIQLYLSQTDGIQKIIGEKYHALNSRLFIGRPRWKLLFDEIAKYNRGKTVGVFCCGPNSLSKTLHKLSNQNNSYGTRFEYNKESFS
human NOX4 (hNOX4), sequence (P13498 2-195 partner): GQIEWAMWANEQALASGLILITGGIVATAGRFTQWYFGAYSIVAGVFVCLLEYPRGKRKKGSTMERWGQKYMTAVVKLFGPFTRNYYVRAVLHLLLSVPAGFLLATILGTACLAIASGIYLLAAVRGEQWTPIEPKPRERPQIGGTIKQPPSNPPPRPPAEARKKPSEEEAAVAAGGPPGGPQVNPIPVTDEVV
Experimental: NOX4 inhibition is assessed utilizing HEK293 cells stably overexpressing human NOX4 (hNOX4), generating constitutively high levels of hydrogen peroxide (H2O2). Cells are cultured in the Dulbecco's Modified Eagle Medium (DMEM) media containing 4.5 g/L glucose supplemented with 10% fetal calf serum and 250 μg/ml Zeocin in an incubator at 37° C. with 5% CO2. For the assay, cells are seeded in 384 well plates. […] After incubation Lumigen HyPerBlu™ is added and cells are incubated for additional 30 min at 24° C. in a humidified incubator. Next, luminescence is measured using an Envision Multimode Plate reader to determine levels of produced H2O2 in the wells.

NOX4, sequence (Q9NPH5 whole entry, species assumed): as the sequence (Q9NPH5 whole entry) above
NOX4, sequence (P13498 2-195 partner, species assumed): as the sequence (P13498 2-195 partner) above

Compound | IC50 [1] | IC50 [2]
O=C(Nc1ccc2oc(N3CCC34COC4)nc2c1)c1ccc2c(c1)CCO2 [WO2016207785 example 15] | 0.4 µM | 
O=c1c2ncccc2nc(SCc2ccccc2F)n1-c1ccc(Cl)cc1 [WO2005049613 example 59] |  | 79 µM
